The test system of one assay is M. canis. Description: Antifungal activity: Minimum Inhibitory Concentration. As to conditions: M. canis, 27° C., one week; for MIC: Microsporum canis, read-out: Minimum Inhibitory Concentration. It counts as cell-based, Microsporum canis NCPF 351. As for the experimental part:
(§1) The antimicrobial activity was determined by inoculation of the test microorganism into suitable growth media containing solutions of the compounds at concentrations of 100, 50, 10, 5, 1.0, 0.5 and 0.1 μg/ml. The reference antibiotics used were Gentamicin for the antibacterial tests and Amphotericin B for the antimycotic and antifungal tests. After incubation the antimicrobial activity was recorded as the Minimal Inhibitory Concentration (M.I.C.), i.e., the lowest concentration preventing macroscopically visible growth, for each test compound against each organism.
(§2) An initial solution of each formula (I) compound to be tested in sterile distilled water was prepared at a concentration of 1000 μg/ml. With appropriate dilutions using sterile distilled water, additional solutions were prepared at concentrations of 500, 100, 50, 10, 5 and 1 μg/ml.
(§3) The A. corymbifera, A. fumigatus, S. schenkii, T. rubrum, T. mentagrophytes, M. canis and P. verrucosa strains were all maintained on Sabouraud-Dextrose Agar (Oxoid CM 41) by incubating for 14 days at 27° C. To prepare the inocula 30 ml volumes of Sabouraud-Liquid medium (Oxoid CM 147) were inoculated from the agar cultures and incubated at 27° C. until heavy uniform growth resulted. The mycelial growth was then broken up by shaking with glass beads.
(§4) 1 Ml aliquots were removed from each of the cultures for the purpose of making viable counts and the cultures were then held at 4° C. The viable counts were made by preparing serial ten-fold dilutions of the cultures in sterile physiological saline and spreading on plates of Sabouraud-Dextrose Agar (Oxoid CM 41) which were then incubated at 27° C. for 14 days. When the viable counts had confirmed that each of the inocula contained approximately 10^6 colony forming units (C.F.U.) per ml the cultures were withdrawn from the refrigerator and used as the inocula for the tests.
(§5) (c) For the tests on each of the remaining seven strains and each of the test and reference compounds, a series of 8 tubes containing 4.5 ml volumes of Sabouraud-Liquid Medium (Oxoid CM 147) were prepared. To 7 of these were added 0.5 ml volumes of the final solutions of the test compounds, giving final concentrations in the broths of 100, 50, 10, 5, 1.0, 0.5 and 0.1 μg/ml. To the eighth tube in each series was added 0.5 ml of the solvent used and diluted as for the preparation of the 500 μg/ml solution of the compound. This tube was used as a growth control. The tubes were then inoculated with 0.1 ml aliquots of the inocula prepared as in "(b) Fungi" above. The tubes were then incubated at 27° C. with continuous shaking for a period of one week. The tubes were then examined for evidence of growth as shown by the presence of mycelial growth in the medium and the lowest concentration of the test compound which prevented fungal growth was recorded as the Minimal Inhibitory Concentration. This test procedure was carried out on two separate days.

Another assay deals with C. tropicalis. Description: Antimycotic activity: Minimum Inhibitory Concentration. It counts as cell-based, Candida tropicalis NCPF 3111. The following applies: pH 5.5, 37° C., 72 hours; for Minimum Inhibitory Concentrations: C. tropicalis; for MIC: Candida tropicalis. The protocol:
as §1, §2
The two species, C. albicans and C. tropicalis, were maintained on Sabouraud-Dextrose Agar (Oxoid CM41) and cultures for the preparation of the inoculum were incubated on this agar at 37° C. for 48 hours. 4.5 Ml volumes of citric acid-phosphate buffer pH 5.5 plus Yeast-Nitrogen Base (Difco 0392-15) were then inoculated from the agar cultures and incubated at 37° C. for 48 hours. 0.1 Ml aliquots of these cultures were then added to 100 ml volumes of sterile physiological saline to give the final inocula.
(b) For the tests on each of the C. albicans, C. tropicalis and C. neoformans strains and each of the test and reference compounds, a series of 8 tubes containing 4.5 ml volumes of citric acid-phosphate buffer pH 5.5 plus Yeast-Nitrogen Base (Difco 0392-15) were prepared. To 7 of these were added 0.5 ml volumes of the final solutions of the test compounds, giving final concentrations in the broths of 100, 50, 10, 5, 1.0, 0.5 and 0.1 μg/ml. To the eighth tube in each series was added 0.5 ml of the solvent used and diluted as for the preparation of the 1000 μg/ml solution of the compound. This tube was used as the growth control. The tubes were then inoculated with 0.1 ml aliquots of the inocula prepared as in "(b) Fungi" above. The tubes inoculated with the C. albicans and C. tropicalis were inoculated at 37° C. for 72 hours and the tubes inoculated with the C. neoformans straim were incubated at 30° C. for 72 hours. […] The tubes were then examined for evidence of growth as shown by turbidity of the medium and the lowest concentration of the test compound which prevented fungal growth was recorded as the Minimal Inhibitory Concentration. This test procedure was carried out on two separate days.

The next assay relates to T. rubrum. The experiment in a line: Antifungal activity: Minimum Inhibitory Concentration. It counts as cell-based, Trichophyton rubrum NCPF 197. As to conditions: T. rubrum, 27° C., one week; for MIC: Trichophyton rubrum, read-out: Minimum Inhibitory Concentration. The protocol:
as §1, §2, §3, §4, §5

For another assay, the system named is A. fumigatus. The assay is described as above. The assay is classed as cell-based, Aspergillus fimigatus (A. fumigatus) NCPF 2140. The following applies: A. fumigatus, 27° C., one week; for MIC: Aspergillus fumigatus, read-out: Minimum Inhibitory Concentration. As for the experimental part:
as §1, §2, §3, §4, §5

Another assay relates to S. aureus. Description: Antibacterial activity: Minimum Inhibitory Concentration. The assay is classed as cell-based, Staphylococcus aureus ATCC 6538. As to conditions: 24 hours; for MIC: Staphylococcus aureus. As for the experimental part: as §1, §2
They were cultured and maintained on Tryptone Soy Agar (Oxoid CM 131), with the addition of 10% horse blood for the S. pyogenes.
To prepare the organisms as inocula for the test, slopes of this medium were streaked with the organisms and incubated at 37° C. for 24 hours. 4.5 Ml volumes of Brian-Heart Infusion Broth (Oxoid CM 225) were then inoculated with a platinum loop from the agar slope cultures and incubated for 24 hours at 37° C. The final inocula were then prepared by adding 0.1 ml aliquots of the Brain-Heart Infusion Broth cultures to 100 ml volumes of sterile physiological saline.
(a) For the test on each of the bacterial strains and each of the test and reference compounds, a series of 8 tubes containing 4.5 ml volumes of Brain-Heart Infusion Broth (Oxoid CM 225) were prepared. To 7 of these were added 0.5 ml volumes of the final solutions of the test compouns, giving final concentrations in the broths of 100, 50, 10, 5, 1.0, 0.5 and 0.1 μg/ml. To the eighth tube in each series was added 0.5 ml of the solvent used and diluted as for the preparation of the 1000 μg/ml solution of the compound. This tube was used as the growth control. The tubes were inoculated with 0.02 ml aliquots of the inocula prepared in accordance with "(a) Bacteria" above, and incubated at 37° C. for 24 hours. The tubes were then examined for evidence of bacterial growth as shown by turbidity of the medium and the lowest concentration of the test compound which prevented bacterial growth was recorded as the Minimal Inhibitory Concentration. This test procedure was carried out on two separate days.

[1] abbreviates: pH 5.5, C. tropicalis, Day 1, read-out: Minimum Inhibitory Concentrations.
[2] abbreviates: pH 5.5, C. tropicalis, Day 2, read-out: Minimum Inhibitory Concentrations.

Like-named read-outs stand apart in the source and are kept apart here. Bounds are passed on as bounds.

Take “2,3(5)-dimethyl-1-dodecyl-pyrazolium methosulfate [Example 8-A]”: the “Minimum Inhibitory Concentration” value with M. canis (Day 1) was 5 µg/mL; with M. canis (Day 2) it was 1 µg/mL; in the assay on T. rubrum (Day 1), 5 µg/mL; in the assay on T. rubrum (Day 2), 10 µg/mL; in the assay on A. fumigatus (Day 1), 100 µg/mL; in the assay on A. fumigatus (Day 2) it was 100 µg/mL. Besides, the “Minimum Inhibitory Concentration” value in the assay on S. aureus (Day 1, 37° C.) was 1 µg/mL; in the assay with S. aureus (Day 2, 37° C.), 0.5 µg/mL. In addition, the “Minimum Inhibitory Concentrations” value with C. tropicalis (Day 1) and in the assay on C. tropicalis (Day 2) was 5 µg/mL throughout.

Regarding “2,3(5)-dimethyl-1-hexadecyl-pyrazolium methosulfate [Example 9]”, the “Minimum Inhibitory Concentration” value amounted to 5 µg/mL in the assay with M. canis (Day 1); 5 µg/mL in the assay with M. canis (Day 2); 5 µg/mL with T. rubrum (Day 1); 5 µg/mL with T. rubrum (Day 2); 5 µg/mL with A. fumigatus (Day 1); 10 µg/mL with A. fumigatus (Day 2). Besides, the “Minimum Inhibitory Concentration” value in the assay with S. aureus (Day 1, 37° C.) was 0.5 µg/mL; with S. aureus (Day 2, 37° C.) it was 0.5 µg/mL. The “Minimum Inhibitory Concentrations” value was 5 µg/mL in the assay with C. tropicalis (Day 1) and 1 µg/mL in the assay on C. tropicalis (Day 2).

For `CCCCCCCCCCCCn1c(C)cc(C)[n+]1C` [Example 1, 1-dodecyl-2,3,5-trimethyl-pyrazolium methosulfate], the MIC in the assay with M. canis (Day 1) was determined as 5 µg/mL; with M. canis (Day 2), 10 µg/mL; in the assay on C. tropicalis (setting [1]), 5 µg/mL; with C. tropicalis (setting [2]), 5 µg/mL; in the assay with T. rubrum (Day 1), 10 µg/mL; with T. rubrum (Day 2), 10 µg/mL. Further, the MIC with A. fumigatus (Day 1) is 100 µg/mL; in the assay on A. fumigatus (Day 2), above 100 µg/mL; with S. aureus (Day 1, 37° C.), 5 µg/mL; in the assay on S. aureus (Day 2, 37° C.), 5 µg/mL.

For the molecule `CCCCCCCCCCCCCCCCn1c(C)cc(C)[n+]1C` [Example 2, 1-hexadecyl-2,3,5-trimethyl-pyrazolium methosulfate], the MIC in the assay on M. canis (Day 1) turned out to be 10 µg/mL; in the assay with M. canis (Day 2) it was 5 µg/mL; in the assay on C. tropicalis (setting [1]), 1 µg/mL; in the assay on C. tropicalis (setting [2]) it was 0.5 µg/mL; in the assay with T. rubrum (Day 1), 5 µg/mL; in the assay on T. rubrum (Day 2), 5 µg/mL. The MIC with A. fumigatus (Day 1) came to 10 µg/mL; in the assay with A. fumigatus (Day 2), 5 µg/mL; in the assay with S. aureus (Day 1, 37° C.) it was 0.5 µg/mL; against S. aureus (Day 2, 37° C.), 0.5 µg/mL.

Regarding `CCCCCCCCCCCCCCCCn1ccc[n+]1C` [Example 3-D, 1-hexadecyl-2-methyl-pyrazolium methosulfate], the MIC was 5 µg/mL with M. canis (Day 1); 5 µg/mL with M. canis (Day 2); 0.5 µg/mL in the assay with C. tropicalis (setting [1]); 0.5 µg/mL in the assay on C. tropicalis (setting [2]); 1 µg/mL in the assay with T. rubrum (Day 1); 1 µg/mL with T. rubrum (Day 2). Also, the MIC is 50 µg/mL in the assay with A. fumigatus (Day 1); 10 µg/mL in the assay on A. fumigatus (Day 2); 0.5 µg/mL against S. aureus (Day 1, 37° C.); 0.5 µg/mL with S. aureus (Day 2, 37° C.).

With `CCCCCCCCCCCCn1ccc[n+]1C` [Example 3-E, 1-dodecyl-2-methy-pyrazolium methosulfate], the MIC was 10 µg/mL in the assay with M. canis (Day 1); 10 µg/mL with M. canis (Day 2); 5 µg/mL in the assay on C. tropicalis (setting [1]); 1 µg/mL in the assay with C. tropicalis (setting [2]); 5 µg/mL in the assay on T. rubrum (Day 1); 5 µg/mL with T. rubrum (Day 2). Moreover, the MIC in the assay on A. fumigatus (Day 1) is 50 µg/mL; in the assay with A. fumigatus (Day 2) it was 10 µg/mL; in the assay on S. aureus (Day 1, 37° C.) it was 1 µg/mL; against S. aureus (Day 2, 37° C.), 1 µg/mL.

`CCCCCCCCCCCCCCn1ccc[n+]1C` [Example 3-G, 2-methyl-1-tetradecyl-pyrazolium methosulfate]: the MIC in the assay on M. canis (Day 1) was found to be 10 µg/mL; in the assay on M. canis (Day 2), 5 µg/mL; in the assay on C. tropicalis (setting [1]), 0.5 µg/mL; with C. tropicalis (setting [2]) it was 0.5 µg/mL; with T. rubrum (Day 1), 1 µg/mL; in the assay with T. rubrum (Day 2) it was 5 µg/mL. In addition, the MIC in the assay with A. fumigatus (Day 1) came to 50 µg/mL; in the assay with A. fumigatus (Day 2), 50 µg/mL; with S. aureus (Day 1, 37° C.) it was 0.5 µg/mL; against S. aureus (Day 2, 37° C.) it was 0.5 µg/mL.

On to `CCCCCCCCCCCC[n+]1c(C)cc(C)n1Cc1ccc(Cl)cc1Cl.[Br-]` [Example 6-B, 2-(2,4-dichlorobenzyl)-3,5-dimethyl-1-dodecyl-pyrazolium bromide], for which the MIC in the assay on M. canis (Day 1) worked out at 5 µg/mL; in the assay with M. canis (Day 2), 5 µg/mL; with C. tropicalis (setting [1]) it was 1 µg/mL; in the assay with C. tropicalis (setting [2]), 1 µg/mL; in the assay on T. rubrum (Day 1), 5 µg/mL; with T. rubrum (Day 2) it was 1 µg/mL. For the same molecule, the MIC in the assay on A. fumigatus (Day 1) came out at 5 µg/mL; in the assay with A. fumigatus (Day 2), 5 µg/mL; with S. aureus (Day 1, 37° C.) it was 0.5 µg/mL; in the assay with S. aureus (Day 2, 37° C.), 0.5 µg/mL.

Turning to `CCCCCCCCCCCCCCCC[n+]1c(C)cc(C)n1C.Cc1ccc(S(=O)(=O)[O-])cc1` [Example 6-C, 1-hexadecyl-2,3,5-trimethylpyrazolium p-toluene sulfonate], the “Minimum Inhibitory Concentration” value with M. canis (Day 2), in the assay with T. rubrum (Day 2) and with A. fumigatus (Day 2) was 5 µg/mL each time. The MIC in the assay on C. tropicalis (pH 5.5, read-out: Minimum Inhibitory Concentrations, C. tropicalis, Day 1) was found to be 5 µg/mL; against S. aureus (Day 1, 37° C.) it was 0.5 µg/mL; against S. aureus (Day 2, 37° C.), 0.5 µg/mL.
